According to patent US9302999B2, “Substituted triazoles as herbicides” (E. I. DU PONT DE NEMOURS AND COMPANY, priority 2012, dated 2016):

What was measured:
Type in all cases: in vivo
[1] = tested on: bromegrass, downy (downy bromegrass, Bromus tectorum); assay: Test D pre-/postemergence: bromegrass, downy
In short: (§1)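 Visual ratings from 0 (no effect) to 100 (complete control) were made 14–21 days after treatment, relative to controls. Applications were preemergence to seeds in silt loam, or postemergence to 2–18 cm (1–4 leaf) plants in peat-based medium. Compounds were formulated in a surfactant-containing non-phytotoxic solvent.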

[2] = tested on: chamomile (scentless chamomile, Matricaria inodora); assay: Test D pre-/postemergence: chamomile
Text: (§2) Seeds of plant species selected from bluegrass (annual bluegrass, Poa annua), blackgrass (Alopecurus myosuroides), canarygrass (Phalaris minor), chickweed (common chickweed, Stellaria media), galium (catchweed bedstraw, Galium aparine), bromegrass, downy (downy bromegrass, Bromus tectorum), field poppy (Papaver rhoeas), field violet (Viola arvensis), foxtail, green (green foxtail, Setaria viridis), deadnettle (henbit deadnettle, Lamium amplexicaule), ryegrass, Italian (Italian ryegrass, Lolium multiflorum), kochia (Kochia scoparia), lambsquarters (Chenopodium album), oilseed rape (Brassica napus), pigweed (Amaranthus retroflexus), Russian thistle (Salsola iberica), chamomile (scentless chamomile, Matricaria inodora), speedwell (bird's-eye speedwell, Veronica persica), barley, spring (spring barley, Hordeum vulgare), wheat, spring (spring wheat, Triticum aestivum), buckwheat, wild (wild buckwheat, Polygonum convolvulus), mustard, wild (wild mustard, Sinapis arvensis), oat, wild (wild oat, Avena fatua), radish, wild (wild radish, Raphanus raphanistrum), windgrass (Apera spica-venti), barley, winter (winter barley, Hordeum vulgare), and wheat, winter (winter wheat, Triticum aestivum) were planted into a silt loam soil and treated preemergence with test chemicals formulated in a non-phytotoxic solvent mixture which included a surfactant. At the same time, these same crop and weed species were planted in pots containing the planting medium comprising spaghnum peat moss, vermiculite, wetting agent and starter nutrients and treated with postemergence applications of the test chemicals formulated in the same manner. Plants ranged in height from 2 to 18 cm (1- to 4-leaf stage).
(§3) Treated plants and controls were maintained in a controlled growth environment for 14 to 21 days after which time all species were compared to controls and visually evaluated. Plant response ratings, summarized in Table D, are based on a scale of 0 to 100 where 0 is no effect and 100 is complete control. A dash (-) response means no test result.

[3] = tested on: field poppy (Papaver rhoeas); assay: Test D pre-/postemergence: field poppy
Text: as §2, §3

[4] = tested on: wheat, spring (spring wheat, Triticum aestivum); assay: Test D pre-/postemergence: wheat, spring
Text: as §2, §3

[5] = tested on: canarygrass (Phalaris minor); assay: Test D pre-/postemergence: canarygrass
In short: as §1

[6] = tested on: field bindweed (Convolvulus arvensis); assay: Test F pre-/postemergence: field bindweed; details: Postemergence, scale 0 to 100
Text: (§4) Seeds of plant species selected from corn (Zea mays), soybean (Glycine max), velvetleaf (Abutilon theophrasti), lambsquarters (Chenopodium album), poinsettia, wild (wild poinsettia, Euphorbia heterophylla), pigweed, palmer (palmer pigweed, Amaranthus palmeri), waterhemp (common waterhemp, Amaranthus rudis), surinam grass (Brachiaria decumbens), crabgrass, Brazil (Brazilian crabgrass, Digitaria horizontalis), panicum, fall (fall panicum Panicum dichotomiflorum), crabgrass, large (large crabgrass, Digitaria sanguinalis), foxtail, giant (giant foxtail, Setaria faberii), foxtail, green (green foxtail Setaria viridis), goosegrass (Eleusine indica), ragweed (common ragweed, Ambrosia elatior), barnyardgrass (Echinochloa crus-galli), sandbur (southern sandbur, Cenchrus echinatus), arrowleaf sida (Sida rhombifolia), ryegrass, Italian (Italian ryegrass, Lolium multiflorum), dayflower, VA (Virginia (VA) dayflower, Commelina virginica), field bindweed (Convolvulus arvensis), cocklebur (common cocklebur, Xanthium strumarium), morningglory (Ipomoea coccinea), nightshade (eastern black nightshade, Solanum ptycanthum), kochia (Kochia scoparia), nutsedge, yellow (yellow nutsedge, Cyperus esculentus), johnsongrass (Sorghum halepense), smartweed (ladysthumb smartweed, Polygonum persicaria), and beggarticks (hairy beggarticks, Bidens pilosa), were planted into a silt loam soil and treated preemergence with test chemicals formulated in a non-phytotoxic solvent mixture which included a surfactant. At the same time, plants selected from these crop and weed species and also pigweed (Amaranthus retroflexus), waterhemp_RES1 (ALS/Triazine resistant common waterhemp, Amaranthus rudis) and waterhemp_RES2 (ALS/HPPD resistant common waterhemp, Amaranthus rudis) were planted in pots containing a planting medium comprising spaghnum peat moss, vermiculite, wetting agent and starter nutrients treated with postemergence applications of some of the test chemicals formulated in the same manner. Plants ranged in height from 2 to 18 cm for postemergence treatments (1- to 4-leaf stage).
as §3, with “greenhouse” for “controlled growth environment”, “days,” for “days”, “E,” for “D,”

[7] = tested on: dayflower, VA (Virginia (VA) dayflower, Commelina virginica); assay: Test F pre-/postemergence: dayflower, VA; details: Postemergence, scale 0 to 100
Text: as §4
as §3, with “greenhouse” for “controlled growth environment”, “days,” for “days”, “E,” for “D,”

[8] = Postemergence, 31 g ai/ha, scale 0 to 100 (0 no effect, 100 complete control)
[9] = Postemergence, 62 g ai/ha, scale 0 to 100 (0 no effect, 100 complete control)
[10] = Postemergence, 125 g ai/ha, scale 0 to 100, 0 no effect, 100 complete control
[11] = Postemergence, 250 g ai/ha, scale 0 to 100 (0 no effect, 100 complete control)
[12] = Postemergence, 16 g ai/ha, scale 0 to 100
[13] = Preemergence, 31 g ai/ha, scale 0 to 100, 0 no effect, 100 complete control
[14] = Preemergence, 62 g ai/ha, scale 0 to 100
[15] = Preemergence, 125 g ai/ha, scale 0 to 100
[16] = Preemergence, 250 g ai/ha, scale 0 to 100
[17] = Preemergence, 16 g ai/ha, scale 0 to 100, 0 no effect, 100 complete control

Cc1nn(-c2ccc(C(F)(F)F)cn2)nc1Oc1ccnc(C(F)(F)F)c1 [Compound 23]
Plant response rating: Bromegrass, Downy [1, 8]: 10 | Plant response rating: Bromegrass, Downy [1, 9]: 15 | Plant response rating: Bromegrass, Downy [1, 10]: 20 | Plant response rating: Bromegrass, Downy [1, 11]: 25 | Plant response rating, Bromegrass, Downy [1, 12]: 0 | Plant response rating: Chamomile [2, 8]: 0 | Plant response rating: Chamomile [2, 9]: 0 | Plant response rating: Chamomile [2, 10]: 0 | Plant response rating: Chamomile [2, 11]: 5 | Plant response rating, Chamomile [2, 12]: 0 | Plant response rating: Field Poppy [3, 8]: 70 | Plant response rating: Field Poppy [3, 9]: 90 | Plant response rating: Field Poppy [3, 10]: 100 | Plant response rating: Field Poppy [3, 11]: 100 | Plant response rating, Field Poppy [3, 12]: 75 | Plant response rating: Wheat, Spring [4, 8]: 5 | Plant response rating: Wheat, Spring [4, 9]: 10 | Plant response rating: Wheat, Spring [4, 10]: 10 | Plant response rating: Wheat, Spring [4, 11]: 15 | Plant response rating, Wheat, Spring [4, 12]: 0 | Plant response rating: Canarygrass [5, 8]: 15 | Plant response rating: Canarygrass [5, 9]: 20 | Plant response rating: Canarygrass [5, 10]: 25 | Plant response rating: Canarygrass [5, 11]: 30 | Plant response rating, Canarygrass [5, 12]: 10

Cc1nn(-c2ccc(C(F)(F)F)cn2)nc1Cc1cccc(C(F)(F)F)c1 [Compound 106]
Plant response rating: Bromegrass, Downy [1, 8]: 0 | Plant response rating: Bromegrass, Downy [1, 9]: 10 | Plant response rating: Bromegrass, Downy [1, 10]: 15 | Plant response rating: Bromegrass, Downy [1, 11]: 15 | Plant response rating, Bromegrass, Downy [1, 12]: 0 | Plant response rating, Bromegrass, Downy [1, 13]: 0 | Plant response rating, Bromegrass, Downy [1, 14]: 0 | Plant response rating, Bromegrass, Downy [1, 15]: 0 | Plant response rating, Bromegrass, Downy [1, 16]: 0 | Plant response rating: Chamomile [2, 8]: 0 | Plant response rating: Chamomile [2, 9]: 0 | Plant response rating: Chamomile [2, 10]: 0 | Plant response rating: Chamomile [2, 11]: 25 | Plant response rating, Chamomile [2, 12]: 0 | Plant response rating: Field Poppy [3, 8]: 100 | Plant response rating: Field Poppy [3, 9]: 100 | Plant response rating: Field Poppy [3, 10]: 100 | Plant response rating: Field Poppy [3, 11]: 100 | Plant response rating, Field Poppy [3, 12]: 100 | Plant response rating: Wheat, Spring [4, 8]: 5 | Plant response rating: Wheat, Spring [4, 9]: 5 | Plant response rating: Wheat, Spring [4, 10]: 10 | Plant response rating: Wheat, Spring [4, 11]: 20 | Plant response rating, Wheat, Spring [4, 12]: 0 | Plant response rating, Wheat, Spring [4, 13]: 0 | Plant response rating, Wheat, Spring [4, 14]: 0 | Plant response rating, Wheat, Spring [4, 15]: 0 | Plant response rating, Wheat, Spring [4, 16]: 0 | Plant response rating: Canarygrass [5, 8]: 5 | Plant response rating: Canarygrass [5, 9]: 10 | Plant response rating: Canarygrass [5, 10]: 20 | Plant response rating: Canarygrass [5, 11]: 30 | Plant response rating, Canarygrass [5, 12]: 5 | Plant response rating, Canarygrass [5, 13]: 0 | Plant response rating, Canarygrass [5, 14]: 0 | Plant response rating, Canarygrass [5, 15]: 0 | Plant response rating, Canarygrass [5, 16]: 0

Cc1nn(-c2ccc(C(F)(F)F)cc2)nc1Oc1ccnc(C(F)(F)F)c1 [Compound 120]
Plant response rating: Bromegrass, Downy [1, 8]: 10 | Plant response rating: Bromegrass, Downy [1, 9]: 10 | Plant response rating: Bromegrass, Downy [1, 10]: 20 | Plant response rating: Bromegrass, Downy [1, 11]: 25 | Plant response rating, Bromegrass, Downy [1, 12]: 5 | Plant response rating, Bromegrass, Downy [1, 17]: 0 | Plant response rating, Bromegrass, Downy [1, 13]: 0 | Plant response rating, Bromegrass, Downy [1, 14]: 5 | Plant response rating, Bromegrass, Downy [1, 15]: 25 | Plant response rating, Bromegrass, Downy [1, 16]: 60 | Plant response rating: Chamomile [2, 8]: 25 | Plant response rating: Chamomile [2, 9]: 40 | Plant response rating: Chamomile [2, 10]: 80 | Plant response rating: Chamomile [2, 11]: 90 | Plant response rating, Chamomile [2, 12]: 10 | Plant response rating, Chamomile [2, 17]: 0 | Plant response rating, Chamomile [2, 13]: 10 | Plant response rating, Chamomile [2, 14]: 20 | Plant response rating, Chamomile [2, 15]: 100 | Plant response rating, Chamomile [2, 16]: 100 | Plant response rating: Field Poppy [3, 8]: 100 | Plant response rating: Field Poppy [3, 9]: 100 | Plant response rating: Field Poppy [3, 10]: 100 | Plant response rating: Field Poppy [3, 11]: 100 | Plant response rating, Field Poppy [3, 12]: 100 | Plant response rating, Field Poppy [3, 17]: 0 | Plant response rating, Field Poppy [3, 13]: 80 | Plant response rating, Field Poppy [3, 14]: 80 | Plant response rating, Field Poppy [3, 15]: 100 | Plant response rating, Field Poppy [3, 16]: 100 | Plant response rating: Wheat, Spring [4, 8]: 10 | Plant response rating: Wheat, Spring [4, 9]: 10 | Plant response rating: Wheat, Spring [4, 10]: 20 | Plant response rating: Wheat, Spring [4, 11]: 25 | Plant response rating, Wheat, Spring [4, 12]: 10 | Plant response rating, Wheat, Spring [4, 17]: 0 | Plant response rating, Wheat, Spring [4, 13]: 0 | Plant response rating, Wheat, Spring [4, 14]: 5 | Plant response rating, Wheat, Spring [4, 15]: 10 | Plant response rating, Wheat, Spring [4, 16]: 20 | Plant response rating: Canarygrass [5, 8]: 5 | Plant response rating: Canarygrass [5, 9]: 20 | Plant response rating: Canarygrass [5, 10]: 90 | Plant response rating: Canarygrass [5, 11]: 95 | Plant response rating, Canarygrass [5, 12]: 0 | Plant response rating, Canarygrass [5, 17]: 0 | Plant response rating, Canarygrass [5, 13]: 90 | Plant response rating, Canarygrass [5, 14]: 100 | Plant response rating, Canarygrass [5, 15]: 100 | Plant response rating, Canarygrass [5, 16]: 100

COc1nn(-c2ccc(C(F)(F)F)cc2)nc1Cc1ccnc(C(F)F)c1 [Compound 138]
Plant response rating: Bromegrass, Downy [1, 8]: 20 | Plant response rating: Bromegrass, Downy [1, 9]: 30 | Plant response rating: Bromegrass, Downy [1, 10]: 40 | Plant response rating: Bromegrass, Downy [1, 11]: 50 | Plant response rating, Bromegrass, Downy [1, 12]: 10 | Plant response rating: Chamomile [2, 8]: 10 | Plant response rating: Chamomile [2, 9]: 30 | Plant response rating: Chamomile [2, 10]: 60 | Plant response rating: Chamomile [2, 11]: 80 | Plant response rating, Chamomile [2, 12]: 0 | Plant response rating: Field Poppy [3, 8]: 90 | Plant response rating: Field Poppy [3, 9]: 90 | Plant response rating: Field Poppy [3, 10]: 100 | Plant response rating: Field Poppy [3, 11]: 100 | Plant response rating, Field Poppy [3, 12]: 80 | Plant response rating: Wheat, Spring [4, 8]: 5 | Plant response rating: Wheat, Spring [4, 9]: 10 | Plant response rating: Wheat, Spring [4, 10]: 25 | Plant response rating: Wheat, Spring [4, 11]: 35 | Plant response rating, Wheat, Spring [4, 12]: 5 | Plant response rating: Canarygrass [5, 8]: 25 | Plant response rating: Canarygrass [5, 9]: 30 | Plant response rating: Canarygrass [5, 10]: 50 | Plant response rating: Canarygrass [5, 11]: 80 | Plant response rating, Canarygrass [5, 12]: 10

Cc1nn(-c2ccnc(Cl)c2)nc1Cc1ccnc(C(F)(F)F)c1 [Compound 141]
Plant response rating, Field Bindweed ([6]; 8 g ai/ha): 50 | Plant response rating, Field Bindweed ([6]; 16 g ai/ha): 60 | Plant response rating, Field Bindweed ([6]; 31 g ai/ha): 70 | Plant response rating, Field Bindweed ([6]; 62 g ai/ha): 80 | Plant response rating, Field Bindweed ([6]; 125 g ai/ha): 85 | Plant response rating, Dayflower, VA ([7]; 8 g ai/ha): 10 | Plant response rating, Dayflower, VA ([7]; 16 g ai/ha): 10 | Plant response rating, Dayflower, VA ([7]; 31 g ai/ha): 35 | Plant response rating, Dayflower, VA ([7]; 62 g ai/ha): 60 | Plant response rating, Dayflower, VA ([7]; 125 g ai/ha): 75
